Four compounds from patent US20190117653A1, “SYSTEMS AND METHODS FOR TREATING BACTERIAL INFECTION” (priority 2016, published 2019) can be followed below.

Series [1] relates to S. aureus ATCC 29213. The series can be described thus: MIC with/without bovine pulmonary surfactant. Type of series: cell-based. The settings on record: Staphylococcus aureus. On the procedure: (§1) Antibacterial susceptibility testing was measured by JMI Labs (North Liberty, Iowa, USA). […] These clinical isolates were collected from US (n=4), Mexico (n=2), and Italy (n=1). Susceptibility testing was performed by broth microdilution in accordance with the Clinical and Laboratory and Standards Institute (CLSI) guidelines M07-A10 (2015) and the standard operating procedures at JMI laboratories. Minimum inhibitory concentrations (MICS) were based on CLSI criteria (2015). There are no published breakpoints for iclaprim. E. coli, K. pneumoniae, M. catarrhalis, E. faecalis, and S. aureus were tested in cation-adjusted Mueller-Hinton broth (CA-MHB). S. pneumoniae were tested in CA-MHB supplemented with 2.5-5% lysed horse blood, and H. influenza were tested in Haemophilus test medium. Quality control and interpretation of results were performed in accordance with CLSI M100-S26 (2016) methods. QC ranges for iclaprim were those approved by CLSI and published in M100-S26 (2016). Iclaprim and comparator antibiotic MIC results were within the CLSI published ranges against E. coli ATCC 25922, E. faecalis ATCC 29212, E. faecalis ATCC 33186, H. influenzae ATCC 49247, K. pneumoniae ATCC 700603 (ESBL phenotype), S. aureus ATCC 29213, and S. pneumoniae ATCC 49619. Isolates were tested with MIC panels (ThermoFisher Scientific, Cleveland, Ohio, USA) of comparator antibiotics (daptomycin and levofloxacin).
(§2) Because bovine pulmonary surfactant can introduce cloudiness to the MIC testing media, antimicrobial growth inhibition was also evaluated using the colorimetric metabolic indicator resazurin (Camlab Ltd., Cambridge, UK). […] S. pneumoniae panels were omitted from resazurin analysis because the color change was obscured by the lysed horse blood present in the test medium. Growth inhibition was then evaluated as a visible color change from blue (no growth) to pink (robust growth) and recorded as a MIC1z value.
(§3) The MICs of iclaprim, levofloxacin, and daptomycin were determined against Gram-positive and Gram-negative isolates.
(§4) A new vial of bovine pulmonary surfactant (BPS; Survanta®; Abbott Laboratories, Columbus, Ohio) was utilized for each independent experiment. Each vial was mixed thoroughly and a 100 μL aliquot was spread on an agar plate, which was incubated overnight to confirm sterility. […] The concentration of surfactant was expressed in terms of percent volume of Survanta® suspension, which consisted of phospholipid (25 mg/mL) and surfactant proteins (<1 mg/mL) in 0.9% sodium chloride solution (Goerke, 1998). MICs of daptomycin were determined in CAMHB with the Ca^2+ content adjusted to 50 mg/L.

In series [2] the test system is E. faecalis ATCC 33186. The series can be described thus: MIC with/without bovine pulmonary surfactant. The following applies: Enterococcus faecalis, ATCC33186, 2.5% v/v BPS, read-out: MIC, Resazurin: +BPS. Type of series: cell-based. Here is the method:
as §1, §2, §3, §4

Series [3] deals with S. aureus Clinical Isolate 825189. The series can be described thus: MIC with/without bovine pulmonary surfactant. The class given is cell-based. The settings on record: Staphylococcus aureus. On the procedure:
as §1, §2, §3, §4

The test system of series [4] is E. coli ATCC 25922. The series can be described thus: MIC with/without bovine pulmonary surfactant. The class given is cell-based. The following applies: Escherichia coli. On the procedure: as §1, §2, §3, §4
Series [5] can be described thus: pH value of a 1% solution in water. The class given is physicochemical. An excerpt: The molecular formulae for iclaprim and iclaprim mesylate are […] (base) and C20H26N4O6S (mesylate), and their relative molecular masses are 354.41 (base) or 450.52 (mesylate). […] One skilled in the art can readily obtain iclaprim or iclaprim mesylate, and synthesis of these compounds is described in U.S. Pat. No. 5,773,446, the entire disclosure of which is herein incorporated by reference.

Series [6] concerns male and female rats. The settings on record: both, rat, in vivo, 4 weeks. Here is the method: A repeated-dose, 4-week toxicity study was conducted in male and female rats, where single, daily IV bolus doses up to 60 mg/kg were given. […] A 28-day toxicity study was also conducted in male and female marmosets, where iclaprim mesylate was infused intravenously over a 20-minute interval.

The subject of series [7] is female mini-pigs. The following applies: minipig, in vivo.
Series [8] relates to mouse. As to the kind of experiment: acute IV toxicity in the mouse (lowest lethal dose). Type of series: in vivo.
Series [9] concerns M. catarrhalis Clinical Isolate 893807. The series can be described thus: MIC with/without bovine pulmonary surfactant. Type of series: cell-based. The settings on record: Moraxella catarrhalis, 2.5% v/v BPS, read-out: MIC, Resazurin: +BPS. On the procedure: as §1, §2, §3, §4
For orientation: The colour change of resazurin is a common sign of viable cells or microbes.

In series [10] the test system is M. catarrhalis Clinical Isolate 893806. The series can be described thus: MIC with/without bovine pulmonary surfactant. The class given is cell-based. The settings on record: Moraxella catarrhalis, 2.5% v/v BPS, read-out: MIC, Resazurin: +BPS. Here is the method:
as §1, §2, §3, §4

In series [11] the test system is E. faecalis ATCC 29212. The series can be described thus: MIC with/without bovine pulmonary surfactant. The class given is cell-based. The following applies: Enterococcus faecalis, ATCC29212, 2.5% v/v BPS, read-out: MIC, Resazurin: +BPS. On the procedure:
as §1, §2, §3, §4

Series [12] concerns S. aureus strain AH1252. As to the kind of experiment: neutropenic rat lung infection model. The class given is in vivo, Staphylococcus aureus. Here is the method:
S. aureus strain AH1252, a thymidine knockout of the MRSA wild type AW6 strain, was utilized for this study. The bacterial strain was diluted in a 2% alginate buffer, which was added dropwise in a ratio of 1:5 into […] to form alginate beads. The alginate beads reduce the efficacy of bacterial clearance similar to that seen in the cystic fibrosis population. A 5.25×10^4 bacterial inoculum was administered to groups of 9 rats, intratracheally, with prepared alginate bacteria suspensions, under isoflurane anesthesia. […] Twelve hours after the last treatment, rats were euthanized and lungs collected for CFU determination.

The test system of series [13] is nosocomial pneumonia suspected or confirmed to be caused by Gram-positive pathogens. The series can be described thus: Phase 2 study in nosocomial pneumonia, iclaprim versus vancomycin. Type of series: in vivo, human. The text has this:
This MIC effect of surfactant on daptomycin activity has been reported to be mediated by binding of surfactant components to specific structures present on antibiotics, such as the lipophilic side-chain of daptomycin (Silverman et al., 2005). […] Collectively, the current in vitro study and a previous Phase 2 study support that iclaprim could be a potential treatment for pneumonia, including nosocomial pneumonia caused by susceptible and multidrug resistant Gram-positive bacteria.

Where [14] appears, read: ATCC29213, 2.5% v/v BPS, read-out: MIC, Resazurin: +BPS.
[15] abbreviates: ATCC29213, no BPS, read-out: MIC, CLSI.
Where [16] appears, read: ATCC29213, no BPS, read-out: MIC, Resazurin.
Setting [17] is: 2.5% v/v BPS, read-out: MIC, Resazurin: +BPS.
Where [18] appears, read: no BPS, read-out: MIC, Resazurin.

The term MIC denotes the least concentration at which growth counts as inhibited.

SMILES strings stand for the structures. In brackets after ≈: the same amount, converted by molar mass. Where a name gives a salt, the structure may show the parent alone. Read-outs that look alike come from different tables or passages of the source.

As to `C[C@H]1COc2c(N3CCN(C)CC3)c(F)cc3c(=O)c(C(=O)O)cn1c23` [levofloxacin], the MIC in series [1] (ATCC29213, 2.5% v/v BPS, read-out: MIC, CLSI: +BPS) was determined as 0.12 mg/L (≈ 0.332 µM); in series [1] (setting [14]), 0.12 mg/L (≈ 0.332 µM); in series [1] (setting [15]), 0.25 mg/L (≈ 0.692 µM); in series [1] (setting [16]), 0.25 mg/L (≈ 0.692 µM); in series [2], 2 mg/L (≈ 5.53 µM); in series [3] (2.5% v/v BPS, read-out: MIC, CLSI: +BPS), 0.25 mg/L (≈ 0.692 µM). Also, the MIC in series [3] (setting [17]) is 0.25 mg/L (≈ 0.692 µM); in [3] (no BPS, read-out: MIC, CLSI), 0.25 mg/L (≈ 0.692 µM); in [3] (setting [18]) it was 0.25 mg/L (≈ 0.692 µM); in [4] (ATCC25922, 2.5% v/v BPS, read-out: MIC, CLSI: +BPS), 0.03 mg/L (≈ 0.083 µM); in series [4] (ATCC25922, 2.5% v/v BPS, read-out: MIC, Resazurin: +BPS), 0.03 mg/L (≈ 0.083 µM); in series [4] (ATCC25922, no BPS, read-out: MIC, CLSI), 0.015 mg/L (≈ 0.0415 µM). The MIC in series [4] (ATCC25922, no BPS, read-out: MIC, Resazurin) was 0.015 mg/L (≈ 0.0415 µM).

`COc1cc(Cc2cnc(N)nc2N)c2c(c1OC)OC(C1CC1)C=C2` (racemic) [iclaprim mesylate, 5-[(2RS)-2-cyclopropyl-7,8-dimethoxy-2Hchromen-5-ylmethyl] pyrimidine-2,4-diamine methanesulfonate] showed a pH value in series [5] of 4.2. In series [6], the “HED of NOAEL” value turned out to be 3.9 mg/kg/day and the “dosage with histopathological changes at the injection sites” value is recorded as not below 10 mg/kg/day. In series [7], the “HED of maximum tolerated single IV dose” value was determined as 14.6 mg/kg and the “maximum tolerated single IV dose” value is recorded as 20 mg/kg. In series [8], the “HED of lowest lethal IV dose” value came out at 6.1 mg/kg and the “lowest lethal IV dose” value is given as 75 mg/kg.

Take `CCCCCCCCCC(=O)N[C@@H](Cc1c[nH]c2ccccc12)C(=O)N[C@H](CC(N)=O)C(=O)N[C@@H](CC(=O)O)C(=O)N[C@@H]1C(=O)NCC(=O)N[C@@H](CCCN)C(=O)N[C@@H](CC(=O)O)C(=O)N[C@H](C)C(=O)N[C@@H](CC(=O)O)C(=O)NCC(=O)N[C@H](CO)C(=O)N[C@@H]([C@H](C)CC(=O)O)C(=O)N[C@@H](CC(=O)c2ccccc2N)C(=O)O[C@@H]1C` [daptomycin]: the MIC is more than 16 mg/L in series [1] (setting [14]); 0.5 mg/L (≈ 0.309 µM) in [1] (setting [15]); 0.5 mg/L (≈ 0.309 µM) in series [1] (setting [16]); more than 16 mg/L in series [9]; more than 16 mg/L in series [2]; more than 16 mg/L in [10]. The MIC is more than 16 mg/L in [11], more than 16 mg/L in series [3] (setting [17]) and 0.25 mg/L (≈ 0.154 µM) in series [3] (setting [18]).

For the compound `CN[C@H](CC(C)C)C(=O)N[C@H]1C(=O)N[C@@H](CC(N)=O)C(=O)N[C@H]2C(=O)N[C@H]3C(=O)N[C@H](C(=O)N[C@H](C(=O)O)c4cc(O)cc(O)c4-c4cc3ccc4O)[C@H](O)c3ccc(c(Cl)c3)Oc3cc2cc(c3O[C@@H]2O[C@H](CO)[C@@H](O)[C@H](O)[C@H]2O[C@H]2C[C@](C)(N)[C@H](O)[C@H](C)O2)Oc2ccc(cc2Cl)[C@H]1O` [Vancomycin, vancomycin, reference compound], in series [12] (50 mg/kg SC/BID), the “72 hour lungs log10CFU/Lung (CFU/gram of lung)” value turned out to be 5.30, the “Change in CFUs from 2 hr. infection controls” value is 2.18 log 10 CFU and the “Change in CFUs from 72 hr. infection controls” value is −3.38 log 10 CFU. For the same compound, the “Survival >60 hrs” value in series [12] (50 mg/kg SC/BID (100 mg/kg/day) 3 days) is 8/9. Further, in series [12] (vancomycin 50 mg/kg SC/BID), the “CFU reduction from the 72 hour infection controls” value stood at 3.38 log 10 CFU. For the same compound, the “cure rate, intent-to-treat population” value in [13] (vancomycin 1 g IV q12h, test of cure visit (12 of 23)) was determined as 52.2%. The “death rate within 28 days of the start of treatment” value in [13] (vancomycin (5 of 23)) was found to be 21.7%.
